Legend:
Assay type in all cases: cell-based, human
[1] = system: NK1R (neurokinin 1 receptor) gene; assay: Gene expression assay by real-time PCR (NK1R) in melanocytes; conditions: melanocytes (KaMC), 2 nM substance P, 5 days
Procedure: (§1) Melanocytes (KaMC; KCTC 12015BP) deposited in the Korean Collection for Type Culture (KCTC) were cultured in M-254 medium (Gibco BRL, NY, USA) supplemented with Human Melanocyte Growth Supplement (HMGS; Gibco BRL, NY, USA) on a 6-well plate, while changing the medium every other day, in a 5% CO2 incubator at 37° C. until the cells occupied 95% of the plate area (95% confluence). […] The cells not treated with substance P or the alpine skullcap (Scutellaria alpina) extract of Example 1 were used as a control group. After removing the medium form the melanocytes cultured on the 6-well plate, the cells were washed 2 times with cold phosphate-buffered saline (PBS) and the remaining water was completely removed. […] 1 μL of the RNA was quantified using Synergy II (Biotek, USA). […] After adding 10 μL of Taqman Gene Expression Master Mix (Life Technologies, USA) and 1 μL of Assays-on-DemandTM (Life Technologies, USA) of NK1R (ACCESSION: NM_001058) and EDN1 (ACCESSION: NM_001168319) genes to 9 μL of the diluted cDNA, the expression of the genes was analyzed by relative quantification using 7500 Fast Real-Time PCR (Life Technologies, USA) with glyceraldehyde 3-phosphate dehydrogenase (GAPDH, ACCESSION: NM001256799) as a control gene. […]

[2] = system: EDN1 (endothelin 1) gene; assay: Gene expression assay by real-time PCR (EDN1) in melanocytes; conditions: melanocytes (KaMC), 2 nM substance P, 5 days
Procedure: as §1

[3] = system: endothelin 1 (EDN1); assay: Endothelin 1 ELISA assay of culture medium of treated melanocytes; conditions: melanocytes (KaMC), 2 nM substance P
Procedure: When the density of the melanocytes on the 6-well plate reached about 80% (˜80% confluence), they were incubated for a total of 5 days with 2 nM of stress-inducing substance P (Bachem Fechemikalien, Bubendorf, Switzerland) or the alpine skullcap (Scutellaria alpina) extract of Example 1 of different concentrations (0, 0.1, 1, 2 and 5 ppm). The cells not treated with substance P or the alpine skullcap (Scutellaria alpina) extract of Example 1 were used as a control group.
The culture medium of the cells treated with the extract in (2) of Test Example 1 were recovered and the amount of endothelin 1 (EDN1) comprised in the medium was measured at 450 nm using the human total endothelin ELISA kit (MyBioSource, USA).
Endothelin content (%)=(Absorbance/Total protein)×100 [Equation 1]

SMILES: CSCC[C@H](NC(=O)[C@H](CC(C)C)NC(=O)CNC(=O)[C@H](Cc1ccccc1)NC(=O)[C@H](Cc1ccccc1)NC(=O)[C@H](CCC(N)=O)NC(=O)[C@H](CCC(N)=O)NC(=O)[C@@H]1CCCN1C(=O)[C@H](CCCCN)NC(=O)[C@@H]1CCCN1C(=O)[C@@H](N)CCCN=C(N)N)C(N)=O [substance P]
- expression of the NK1R gene (relative quantification vs GAPDH, control group = 1) [1]: 3.8
- expression of the EDN1 gene (relative quantification vs GAPDH, control group = 1) [2]: 3.3
- content of endothelin 1 (Absorbance/Total protein x 100, control group = 100%) [3]: 124%
